Where a name gives a salt, the structure may show the parent alone. Read-outs that look alike come from different tables or passages of the source. Values belong to the molecule of their own block, whether it stands above or below them.
What was measured:
[1] = Mouse liver microsome stability; format: in vitro ADME; conditions: mouse liver microsomes; read-out: Mouse liver microsome t1/2
Procedure: Selected compounds were incubated with mouse liver microsomes to assess their stability to oxidative metabolism by cytochrome P450 enzymes (Table 1).

[2] = target: glucosylceramide synthase (GCS) (Canis lupus familiaris, UniProt A0A8I3MXG6); assay: GCS activity, broken cell assay (inhibition of GlcCer synthesis in broken wild-type MDCK cell preparations); format: biochemical, canine; conditions: mean of n > 2 experiments
Chain of glucosylceramide synthase (GCS) (A0A8I3MXG6 1-394): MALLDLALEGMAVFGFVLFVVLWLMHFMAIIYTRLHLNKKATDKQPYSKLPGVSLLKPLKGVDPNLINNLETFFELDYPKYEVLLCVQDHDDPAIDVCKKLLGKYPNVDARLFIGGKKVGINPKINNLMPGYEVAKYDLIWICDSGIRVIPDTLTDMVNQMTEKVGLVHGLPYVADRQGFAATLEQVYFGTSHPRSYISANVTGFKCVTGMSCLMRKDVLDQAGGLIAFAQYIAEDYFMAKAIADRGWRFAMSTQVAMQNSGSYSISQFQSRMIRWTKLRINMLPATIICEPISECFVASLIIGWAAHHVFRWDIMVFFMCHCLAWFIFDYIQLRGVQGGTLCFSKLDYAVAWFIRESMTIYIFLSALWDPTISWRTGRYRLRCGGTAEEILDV
Procedure: Enzyme activity was measured as described previously (9). Madin-Darby canine kidney (MDCK) cell homogenates (120 μg of protein) were incubated with uridine diphosphate-[^3H]glucose (100,000 cpm) and liposomes consisting of 85 μg of octanoylsphingosine, 570 μg of dioleoylphosphatidylcholine, and 100 μg of sodium sulfatide in a 200 μL reaction mixture and kept for 1 h at 37° C.

[3] = target: GCS in WT-MDCKII cells (Canis lupus familiaris, UniProt A0A8I3MXG6); assay: Inhibition of GlcCer production in whole wild-type MDCKII cells; format: cell-based, canine; conditions: 24 hours, read-out: WT-MDCK IC50
Chain of GCS in WT-MDCKII cells (A0A8I3MXG6 1-394): as above
Procedure: (§1) Parental (WT-)MDCKII cells and MDCKII cells retrovirally transduced with human MDR-1 cDNA were obtained from the Netherlands Cancer Institute. Both cell lines were routinely maintained in medium consisting of Opti-MEM/F12 (1:1), 5% FBS, 100 U/mL of penicillin, 100 μg/mL streptomycin and […] L-glutamine. MDCKII cells were newly thawed from frozen ampules every two months.
(§2) Stock solutions of water-insoluble glycosphingolipid inhibitors (100 mM) were prepared by dissolving each inhibitor into 100% ethanol as previously described (3). The inhibitor-ethanol solutions then were diluted 50× into 2 mM delipidated bovine serum albumin-phosphate buffered saline solution to make water-soluble glycosphingolipid inhibitor-bovine serum albumin complexes. The inhibitor-bovine serum album complexes were sterile-filtered and stored at −20° C. Prior to use, portions of the inhibitor-bovine serum albumin complexes were further diluted with Opti-F12 to make treatment solutions. Equal amounts of bovine serum albumin and ethanol were added into the control cultures. WT and MDR1-MDCKII cells (5×10^5) were seeded into 10-cm culture dishes containing 10 ml of Opti-F12 with 5% FBS.
(§3) Following inhibitor treatment, whole cellular lipids of wild type and MDR1-MDCKII cells were extracted as previously described in detail (10). Briefly, cells were washed with ice-cold phosphate buffered saline, fixed by methanol, and collected with rubber scraper. Chloroform was then added to yield a theoretical ratio of chloroform:methanol:water at 1:2:0.8 (v/v/v) to form a mono-phase. Cell debris and proteins were removed by centrifugation at 2200×g for 30 min. The supernatants were portioned by adding chloroform and 0.9% NaCl. The lower organic phases containing neutral glycosphingolipids lipids were washed with methanol and 0.9% NaCl, and subjected to base- and acid-hydrolysis (10). A portion of purified glycosphingolipids normalized to 100 nmol of total phospholipids was analyzed by high performance thin layer chromatography. The thin layer chromatography separations were processed twice. The plate pretreated with 1% sodium borate was first developed in a solvent system consisting of chloroform/methanol (98/2, v/v). After air drying, the plate was then developed in a solvent system containing chloroform/methanol/water (70/30/4, v/v/v). The levels of glucosylceramide were detected by charring with 8% cupric sulfate in 8% phosphoric acid, and quantified by densitometric scanning using ImageJ, NIH Image.

[4] = target: GCS in MDR1-MDCKII cells (Canis lupus familiaris, UniProt A0A8I3MXG6); conditions: read-out: MDR1-MDCKII IC50; MDCKII cells stably expressing human MDR1, 24 hours
Chain of GCS in MDR1-MDCKII cells (A0A8I3MXG6 1-394): as above
Procedure: as §1, §2, §3

[5] = tested on: brain glucosylceramide (GlcCer); assay: Brain glucosylceramide (GlcCer) content in WT mice; format: in vivo, mouse; conditions: for reduction in brain GlcCer levels / reduction of brain GlcCer levels: WT mice
Procedure: Lipid extractions of liver, kidney, and brain were performed as previously described (7). Briefly, frozen liver (about 0.5 g), two kidneys (about 0.3 g) and whole brain (about 0.4 g) were individually homogenized in sucrose buffer (250 mM sucrose, pH 7.4, 10 mM HEPES and 1 mM EDTA), at 0.2 g tissue/1 mL of sucrose buffer, with a Tri-R homogenizer. Each 0.8 mL of homogenate was mixed with 2 mL of methanol and 1 mL of chloroform, bath sonicated for 1 min and incubated at room temperature for 1 h. Tissue debris were removed by centrifugation at 2,400× gravity for 30 min. The pellets were re-extracted by mixing with 1 mL of methanol, 0.5 mL of chloroform and 0.4 mL of 0.9% NaCl (chloroform/methanol/0.9% NaCl, 1:2:0.8), incubated at room temperature for 1 h and centrifuged at 2,400× gravity for another 30 min. Two extracts were combined and mixed with 4.5 mL of chloroform and 1.2 mL of 0.9% NaCl (chloroform/methanol/0.9% NaCl, 2:1:0.8). After centrifugation at 800× gravity for 5 min, lower layer was washed with 3 mL of methanol and 2.4 mL of 0.9% NaCl. Second washing was carried with 3 mL of methanol, 2 mL of water and 0.4 mL of 0.9% NaCl followed by a 5 min centrifugation at 800× gravity. The resultant lower phase was collected and dried under a stream of N2 gas.
The analysis of neutral glycosphingolipids from mouse liver, kidney, and brain was processed after alkaline methanolysis. […] lipids were incubated with 2 mL of chloroform and 1 ml of 0.21N NaOH in methanol for 2 h (kidney) or 7.5 h (liver and brain) at RT. The lipid extract was normalized to 0.5 μmol of total phospholipid phosphate (liver and kidney) or 2 μmol of total phospholipid phosphate (brain) for high performance thin layer chromatography analysis. After alkaline methanolysis, the brain lipids were passed through a silica gel column (7). Borate-impregnated thin layer chromatography plates were developed in a two solvent system. Plates were first developed in chloroform/methanol (98:2, v/v). The plates loaded with kidney and liver lipids were then developed in chloroform/methanol/water (64:24:4, v/v/v), and brain lipids were further separated in chloroform/methanol/water (60:30:6, v/v/v). GlcCer levels were quantified by comparison to known standards.
In another test, a dose ranging study for brain glucosylceramide (GlcCer) content was performed using the compound of Example 7. FIG. 1 contains bar graphs showing the GluCer levels in treated and untreated WT mouse brain at low doses for 3 days (FIG. 1A) and high doses for 3 days (FIG. 1B). […] FIG. 1C compares the GlcCer levels in treated and untreated WT mouse brain for 7 days comparing oral gavage vs. IP injection. […] FIG. 2 contains comparative brain GlcCer level data obtained with the Control Compound, dosed at 10 mg/kg IP (FIG. 2A) or 60 mg/kg IP (FIG. 2B) in WT mice for 3 days.

[6] = Brain and plasma drug levels after single oral dose in CD-1 mice; format: in vivo, mouse
[7] = mouse, brain, single 20 mg/kg PO, female CD-1 mice, read-out: Drug level in brain
[8] = mouse, plasma, single 20 mg/kg PO, female CD-1 mice, read-out: Drug level in plasma
[9] = mouse, plasma, single 20 mg/kg PO, female CD-1 mice, 7 hrs, read-out: Drug level in plasma

half-life [1]: 2.7 min
SMILES: COc1ccc([C@@H](O)[C@@H](CN2CCCC2)NC(=O)CC2Cc3ccccc3C2)cc1F [Example 1, 2-(2,3-dihydro-1H-inden-2-yl)-N-((1R,2R)-1-(3-fluoro-4-methoxyphenyl)-1-hydroxy-3-(pyrrolidin-1-yl)propan-2-yl)acetamide]

half-life [1]: 5.5 min
SMILES: COc1ccc([C@@H](O)[C@@H](CN2CCCC2)NC(=O)CC2Cc3ccccc3C2)cc1 [Example 2, 2-(2,3-dihydro-1H-inden-2-yl)-N-((1R,2R)-1-hydroxy-1-(4-methoxyphenyl)-3-(pyrrolidin-1-yl)propan-2-yl)acetamide]

half-life [1]: 4 min
SMILES: COc1cccc([C@@H](O)[C@@H](CN2CCCC2)NC(=O)CC2Cc3ccccc3C2)c1 [Example 3, 2-(2,3-dihydro-1H-inden-2-yl)-N-((1R,2R)-1-hydroxy-1-(3-methoxyphenyl)-3-(pyrrolidin-1-yl)propan-2-yl)acetamide]

SMILES: COc1ccccc1[C@@H](O)[C@@H](CN1CCCC1)NC(=O)CC1Cc2ccccc2C1 [Example 4, 2-(2,3-dihydro-1H-inden-2-yl)-N-((1R,2R)-1-hydroxy-1-(2-methoxyphenyl)-3-(pyrrolidin-1-yl)propan-2-yl)acetamide]
IC50 [2]: 44 nM
IC50 [3]: 5 nM
IC50 [4]: 56 nM

half-life [1]: 37 min
concentration at 1 h [6, 7]: 193 ng/g
concentration at 7 h ([6]; mouse, brain, single 20 mg/kg PO, female CD-1 mice, 7 hrs, read-out: Drug level in brain): 68 ng/g
concentration at 1 h [6, 8]: 463 ng/g
concentration at 7 h [6, 9]: 52 ng/g
SMILES: O=C(CC1Cc2ccccc2C1)N[C@H](CN1CCCC1)[C@H](O)c1ccc(OC(F)(F)F)cc1 [Example 7, 2-(2,3-dihydro-1H-inden-2-yl)-N-((1R,2R)-1-hydroxy-3-(pyrrolidin-1-yl)-1-(4-(trifluoromethoxy)phenyl)propan-2-yl)acetamide]
reduction in brain GlcCer levels ([5]; 1 mg/kg IP, 3 days): Near maximal reduction
reduction of brain GlcCer levels ([5]; 1 mg/kg IP, 3 days): 35%
reduction in brain GlcCer levels ([5]; oral dosing at 10 mg/kg, 7 days): significant reductions

SMILES: O=C(CC1Cc2ccccc2C1)N[C@H](CN1CCCC1)[C@H](O)c1ccc(OCC2CC2)cc1 [Example 11, N-((1R,2R)-1-(4-(cyclopropylmethoxy)phenyl)-1-hydroxy-3-(pyrrolidin-1-yl)propan-2-yl)-2-(2,3-dihydro-1H-inden-2-yl)acetamide]
IC50 [2]: 46 nM
IC50 [3]: 1 nM
IC50 [4]: 0.84 nM

half-life [1]: 11 min
SMILES: O=C(CC1Cc2ccccc2C1)N[C@H](CN1CCCC1)[C@H](O)c1ccc(OCC(F)(F)F)cc1 [Example 12, 2-(2,3-dihydro-1H-inden-2-yl)-N-((1R,2R)-1-hydroxy-3-(pyrrolidin-1-yl)-1-(4-(2,2,2-trifluoroethoxy)phenyl)propan-2-yl)acetamide]

IC50 [3]: 50 nM
SMILES: O=C(CC1Cc2ccccc2C1)N[C@H](CN1CCCC1)[C@H](O)c1cccc(OC(F)(F)F)c1 [Example 14, 2-(2,3-dihydro-1H-inden-2-yl)-N-((1R,2R)-1-hydroxy-3-(pyrrolidin-1-yl)-1-(3-(trifluoromethoxy)phenyl)propan-2-yl)acetamide]

SMILES: O=C(CC1Cc2ccccc2C1)N[C@H](CN1CC[C@@H](F)C1)[C@H](O)c1ccc(OC(F)(F)F)cc1 [Example 16, 2-(2,3-dihydro-1H-inden-2-yl)-N-((1R,2R)-3-((R)-3-fluoropyrrolidin-1-yl)-1-hydroxy-1-(4-(trifluoromethoxy)phenyl)propan-2-yl)acetamide]
IC50 [2]: > 300 nM
IC50 [3]: 23 nM
IC50 [4]: 47 nM

half-life [1]: > 60 min
SMILES: O=C(CC1Cc2ccccc2C1)N[C@H](CN1CCC1)[C@H](O)c1ccc(OC(F)(F)F)cc1 [Example 17, N-((1R,2R)-3-(azetidin-1-yl)-1-hydroxy-1-(4-(trifluoromethoxy)phenyl)propan-2-yl)-2-(2,3-dihydro-1H-inden-2-yl)acetamide]

SMILES: O=C(CC1Cc2ccccc2C1)N[C@H](CN1CCCC1)[C@H](O)c1ccc2c(c1)OCCO2 [control]
IC50 [3]: 15 nM
IC50 [4]: 24 nM
half-life [1]: 1.5 min
reduction of brain GlcCer levels ([5]; 60 mg/kg IP, 3 days): 17%
Kp at 1 h ([6]; female, mouse, brain/plasma, 20 mg/kg, single oral dose, CD-1 mice, at one hour, read-out: brain/plasma ratio): 0.25
concentration at 1 h [6, 7]: 5 ng/g
concentration at 1 h [6, 8]: 20 ng/g
concentration at 7 h [6, 9]: 9 ng/g
Drug level in brain ([6]; single 20 mg/kg PO, female CD-1 mice, 7 hrs): BLQ*

SMILES: CCCCCCCC(=O)N[C@H](CN1CCCC1)[C@H](O)c1ccc2c(c1)OCCO2 [eliglustat tartrate, N-((1R,2R)-1-(2,3-dihydrobenzo-[b][1,4]dioxin-6-yl)-1-hydroxy-3-(pyrrolidin-1-yl)propan-2-yl)octanamide, reference compound]
decrease in brain glucosylceramide content ([5]; mice, intraperitoneal administration for 3 days): not seen

Reference: US10202340B2, “Glucosylceramide synthase inhibitors and therapeutic methods using the same” (THE REGENTS OF THE UNIVERSITY OF MICHIGAN, priority 2015, dated 2019)
